Article PMC6277198, “Molecular basis for activation of lecithin:cholesterol acyltransferase by a compound that increases HDL cholesterol” (eLife, 2018)
Changes are numbered by the printed parent chain. “Also recorded” adds a separate entry of the source.

Key:
[1] = target: T1, LPLA2 (Homo sapiens, UniProt Q8NCC3); assay: Differential scanning fluorimetry; format: binding
T1 sequence (Q8NCC3 34-412): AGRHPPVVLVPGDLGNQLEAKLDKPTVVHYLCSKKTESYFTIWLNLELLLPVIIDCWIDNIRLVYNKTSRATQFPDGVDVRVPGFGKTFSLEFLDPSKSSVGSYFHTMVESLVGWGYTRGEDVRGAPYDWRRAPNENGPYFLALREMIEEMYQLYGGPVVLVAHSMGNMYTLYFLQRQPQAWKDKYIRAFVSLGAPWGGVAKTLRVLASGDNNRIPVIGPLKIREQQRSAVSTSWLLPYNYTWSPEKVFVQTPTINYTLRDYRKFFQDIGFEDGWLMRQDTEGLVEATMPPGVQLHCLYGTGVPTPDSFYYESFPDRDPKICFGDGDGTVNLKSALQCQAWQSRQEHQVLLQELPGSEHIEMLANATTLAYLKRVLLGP

[2] = tested on: LPLA2 chimeric variants (S33Y, I53G, and S33Y/I53G); assay: Differential scanning fluorimetry; format: binding
[3] = target: T2, ∆N∆C-LCAT (Homo sapiens, UniProt P04180); assay: Differential scanning fluorimetry; format: binding; conditions: for Thermal stabilization (DSF): ∆N∆C LCAT
T2 construct: ∆N∆C-LCAT (residues 21–397), a truncation variant that lacks the dynamic N- and C-termini; made in house; host or cells: HEK293F
T2 sequence (P04180 45-421): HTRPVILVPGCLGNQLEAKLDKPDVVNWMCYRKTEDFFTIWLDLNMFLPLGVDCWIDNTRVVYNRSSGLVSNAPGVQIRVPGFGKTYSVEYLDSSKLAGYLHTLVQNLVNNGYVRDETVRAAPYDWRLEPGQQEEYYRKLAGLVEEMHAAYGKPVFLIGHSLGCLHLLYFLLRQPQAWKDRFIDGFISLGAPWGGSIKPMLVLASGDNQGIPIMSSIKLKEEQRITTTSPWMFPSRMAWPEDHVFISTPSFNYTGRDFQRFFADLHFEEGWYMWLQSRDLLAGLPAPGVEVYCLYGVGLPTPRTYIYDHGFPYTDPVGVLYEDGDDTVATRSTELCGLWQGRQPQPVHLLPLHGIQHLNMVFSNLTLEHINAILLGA
Description: (§1) Tm values were determined using an Applied Biosystems QuantStudio 7 Flex qPCR machine with two replicates performed at least in triplicate. LCAT at 0.05 mg mL^−1 was diluted into reaction buffer containing 5X Sypro Orange in a final volume of 10 μL in 384-well PCR plates. DMSO or compound 1 was added so that all reactions contained 3% DMSO. The reactions were run from 25–95 °C with a ramp rate of 0.03 °C s^−1. Tm values were determined as the derivative using Protein Thermal Shift software. Significance was determined using a one-way analysis of variance followed by Tukey’s multiple comparisons post-test in GraphPad Prism.

[4] = target: T3, LCAT R244A (Homo sapiens, UniProt P04180, R268A); assay: Differential scanning fluorimetry; format: binding; conditions: addition of compound 1
T3 construct: hydrolysis of 4-methylumbelliferyl palmitate (MUP) by full-length LCAT; made in house; host or cells: HEK293F (transient transfection, secreted)
T3 sequence (P04180 25-440 R268A): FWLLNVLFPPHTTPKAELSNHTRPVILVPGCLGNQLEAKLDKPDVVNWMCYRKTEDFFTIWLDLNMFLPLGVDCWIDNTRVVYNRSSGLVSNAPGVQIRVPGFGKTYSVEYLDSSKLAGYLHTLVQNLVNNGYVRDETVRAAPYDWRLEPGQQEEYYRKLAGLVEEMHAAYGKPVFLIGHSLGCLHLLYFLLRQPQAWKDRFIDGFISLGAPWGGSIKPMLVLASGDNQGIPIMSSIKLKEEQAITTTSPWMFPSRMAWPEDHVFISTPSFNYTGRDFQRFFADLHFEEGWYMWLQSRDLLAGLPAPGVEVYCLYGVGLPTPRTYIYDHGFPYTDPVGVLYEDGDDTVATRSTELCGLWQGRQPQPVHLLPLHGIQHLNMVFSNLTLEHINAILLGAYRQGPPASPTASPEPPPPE
Description: as §1

[5] = target: T4, ∆N∆C-IDFP LCAT (Homo sapiens, UniProt P04180); assay: Differential scanning fluorimetry; format: binding
T4 construct: ∆N∆C-LCAT (residues 21–397), a truncation variant that lacks the dynamic N- and C-termini; made in house; host or cells: HEK293F
T4 sequence (P04180 45-421): T2 sequence (P04180 45-421)
Description: as §1

[6] = target: T5, WT LCAT (Homo sapiens, UniProt P04180); assay: MST binding assay; parameters: hydrolysis of 4-methylumbelliferyl palmitate (MUP) by full-length LCAT; made in house; host or cells: HEK293F (transient transfection, secreted)
T5 sequence (P04180 25-440): T3 sequence (P04180 25-440 R268A) with A244R
Description: MST was used to determine the binding affinity of the compounds to LCAT. Recombinant proteins were labeled with a fluorophore using the Monolith His-tag labeling RED-Tris-NTA 2nd Generation kit following manufacturer’s protocol. Compounds were titrated in a two-fold dilution series starting at 20 μM and incubated with the same volume of 100 nM labeled recombinant protein for 5 min at room temperature. Measurements were carried out in PBS containing 0.05% Tween-20 and standard capillaries using a Monolith NT.115 instrument (Nanotemper Technologies) with 50% LED excitation power, 60% MST power, MST on-time of 30 s and off-time of 5 s. Kd values were calculated by fitting the thermophoresis signal at 20 s of the thermograph using MO.AffinityAnalysis software.

SMILES	Thermal stabilization (DSF) [1]	Thermal stabilization (DSF) [2]	∆Tm of ∆N∆C-LCAT ([3]; compound 1 and IDFP combined, additive effect)	Thermal stabilization (DSF) [3]	∆Tm [4]	Thermal stabilization (DSF) [5]	Binding to WT LCAT by MST [6]	Kd ([6]; read-out: Kd, binding to LCAT via microscale thermophoresis) [nM]
N#Cc1cnc(N2CCC(c3n[nH]c4c3C(O)(C(F)(F)F)CC(=O)N4)CC2)cc1C(F)(F)F (stereo not shown) [compound 1, 6-(4-(4-Hydroxy-6-oxo-4-(trifluoromethyl)−4,5,6,7-tetrahydro-1H-pyrazolo[3,4-b]pyridin-3-yl)piperidin-1-yl)−4-(trifluoromethyl)nicotinonitrile]	not stabilized	unable to be stabilized	12.7 ˚C	stabilize	6.0 ˚C	stabilize	does	100 ± 14
O=C1CC(O)(C(F)(F)F)c2c(C3CCN(c4cnc(C(F)(F)F)cn4)CC3)n[nH]c2N1 (stereo not shown) [compound 2, 4-Hydroxy-4-(trifluoromethyl)−3-(1-(5-(trifluoromethyl)pyrazin-2-yl)piperidin-4-yl)−4,5-dihydro-1H-pyrazolo[3,4-b]pyridin-6(7H)-one]				stabilize		stabilize		
O=C1CC(O)(C(F)(F)F)c2c(ncn2C2CCN(c3cnc(C(F)(F)F)cn3)CC2)N1 (stereo not shown) [compound 3, 7-Hydroxy-7-(trifluoromethyl)−1-(1-(5-(trifluoromethyl)pyrazin-2-yl)piperidin-4-yl)−6,7-dihydro-1H-imidazo[4,5-b]pyridin-5(4H)-one]				stabilize		stabilize		
O=C1CC(O)(C(F)(F)F)c2c(ncn2C2CCNCC2)N1 (stereo not shown) [compound 6, 7-Hydroxy-1-(piperidin-4-yl)−7-(trifluoromethyl)−6,7-dihydro-1H-imidazo[4,5-b]pyridin-5(4H)-one]							does not bind; also recorded: unable to bind	
